Values of other authors in PMC10583817 (RSC Medicinal Chemistry, 2023).

Tested on: WIN site of WDR5
Details: cited from earlier work

For `Cc1nc(F)ccc1-c1cc(Cn2ccn(C)c2=N)cc(C(=O)NCc2ccc(Cl)c(Cl)c2)c1` [WIN-IN-4], the binding activity is given as “sub-nanomole”.
